# Laboratory results: publication PMC5862592, “CDK8/19 inhibition induces premature G1/S transition and ATR-dependent cell death in prostate cancer cells” (Oncotarget, 2018)
# Read-outs that look alike come from different tables or passages of the source.
# Legend:
# Experiment in all cases: biochemical
# Parameters in all cases: KINOMEscan active site-directed competition binding assay (DiscoveRx), 456 kinases, per cent of control at 300 nM
# Conditions in all cases: read-out: Percent of Control (%)
# [1] = target: T1, ABL1(E255K)-phosphorylated (Homo sapiens, UniProt P00519, E255K)
# T1 construct: phosphorylated
# Method: (§1) Kinase selectivity of T-474 and T-418 was evaluated at 300 nmol/L using a panel of 456 kinases at DiscoveRx (KINOMEscan). The platform employs an active site-directed competition binding assay to quantitatively measure interactions between test compounds and kinases. […] In VCaP prostate cancer cells, treatment with T-474 or T-418 suppressed the phosphorylation of the known CDK8 substrate STAT1 at Ser727 both in the absence and in the presence of IFN-γ (Figure 1B), which stimulates CDK8-mediated STAT1 phosphorylation.
# [2] = target: T2, ABL1(Y253F)-phosphorylated (Homo sapiens, UniProt P00519, Y253F)
# T2 construct: phosphorylated
# Method: as §1
# [3] = target: ABL2 (Homo sapiens, UniProt P42684)
# Method: as §1
# [4] = target: AKT2 (Homo sapiens, UniProt P31751)
# Method: as §1
# [5] = target: AURKB (Homo sapiens, UniProt Q96GD4)
# Method: as §1
# [6] = target: T3, BIKE (Homo sapiens, UniProt Q9NSY1)
# T3 construct: gene BMP2K
# Method: as §1
# [7] = target: CAMK4 (Homo sapiens, UniProt Q16566)
# Method: as §1
# [8] = target: T4, CDC2L1 (Homo sapiens, UniProt P21127)
# T4 construct: gene CDK11B
# Method: as §1
# [9] = target: CSNK1G2 (Homo sapiens, UniProt P78368)
# Method: as §1
# [10] = target: FLT4 (Homo sapiens, UniProt P35916)
# Method: as §1
# [11] = target: T5, IKK-beta (Homo sapiens, UniProt O14920)
# T5 construct: gene IKBKB
# Method: as §1
# [12] = target: T6, IKK-epsilon (Homo sapiens, UniProt Q14164)
# T6 construct: gene IKBKE
# Method: as §1
# [13] = target: T7, JNK2 (Homo sapiens, UniProt P45984)
# T7 construct: gene MAPK9
# Method: as §1
# [14] = target: LCK (Homo sapiens, UniProt P06239)
# Method: as §1
# [15] = target: T8, MLK2 (Homo sapiens, UniProt Q02779)
# T8 construct: gene MAP3K10
# Method: as §1
# [16] = target: T9, MST3 (Homo sapiens, UniProt Q9Y6E0)
# T9 construct: gene STK24
# Method: as §1
# [17] = target: PDPK1 (Homo sapiens, UniProt O15530)
# Method: as §1
# [18] = target: PLK1 (Homo sapiens, UniProt P53350)
# Method: as §1
# [19] = target: SGK3 (Homo sapiens, UniProt Q96BR1)
# Method: as §1
# [20] = target: T10, TAK1 (Homo sapiens, UniProt O43318)
# T10 construct: gene MAP3K7
# Method: as §1
# [21] = target: T11, VEGFR2 (Homo sapiens, UniProt P35968)
# T11 construct: gene KDR
# Method: as §1
# [22] = target: T12, p38-delta (Homo sapiens, UniProt O15264)
# T12 construct: gene MAPK13
# Method: as §1
# AURKB, sequence (Q96GD4 whole entry): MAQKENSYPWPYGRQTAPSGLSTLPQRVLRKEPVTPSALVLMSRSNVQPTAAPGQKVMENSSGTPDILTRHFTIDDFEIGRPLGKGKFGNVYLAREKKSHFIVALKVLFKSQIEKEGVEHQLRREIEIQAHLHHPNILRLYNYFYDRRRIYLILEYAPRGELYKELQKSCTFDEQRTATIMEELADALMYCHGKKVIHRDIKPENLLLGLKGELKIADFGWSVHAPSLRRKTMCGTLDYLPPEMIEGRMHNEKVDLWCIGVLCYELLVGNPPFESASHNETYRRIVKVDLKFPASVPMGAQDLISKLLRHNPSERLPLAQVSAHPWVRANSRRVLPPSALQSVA
# T12 sequence (O15264 whole entry): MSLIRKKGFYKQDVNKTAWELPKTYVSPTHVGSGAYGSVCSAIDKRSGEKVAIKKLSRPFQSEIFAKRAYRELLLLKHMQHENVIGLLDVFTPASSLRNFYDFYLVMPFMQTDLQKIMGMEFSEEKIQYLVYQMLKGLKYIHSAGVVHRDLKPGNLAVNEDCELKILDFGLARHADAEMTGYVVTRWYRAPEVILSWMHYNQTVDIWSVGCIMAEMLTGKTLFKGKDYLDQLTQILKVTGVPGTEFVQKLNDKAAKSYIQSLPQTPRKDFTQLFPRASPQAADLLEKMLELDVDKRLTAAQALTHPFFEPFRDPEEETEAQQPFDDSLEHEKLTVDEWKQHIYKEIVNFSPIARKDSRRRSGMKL
# T7 sequence (P45984 whole entry): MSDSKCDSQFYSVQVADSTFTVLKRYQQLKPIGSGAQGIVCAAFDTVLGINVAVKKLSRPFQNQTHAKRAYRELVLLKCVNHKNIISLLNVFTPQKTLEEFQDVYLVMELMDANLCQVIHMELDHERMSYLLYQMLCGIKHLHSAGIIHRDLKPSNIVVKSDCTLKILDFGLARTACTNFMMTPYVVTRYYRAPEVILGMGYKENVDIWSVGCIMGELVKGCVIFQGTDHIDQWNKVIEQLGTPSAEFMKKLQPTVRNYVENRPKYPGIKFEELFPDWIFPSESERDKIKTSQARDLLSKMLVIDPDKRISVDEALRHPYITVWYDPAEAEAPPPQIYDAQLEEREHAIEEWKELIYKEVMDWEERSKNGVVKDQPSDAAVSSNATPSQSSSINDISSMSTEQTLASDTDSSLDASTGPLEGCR
# T10 sequence (O43318 whole entry): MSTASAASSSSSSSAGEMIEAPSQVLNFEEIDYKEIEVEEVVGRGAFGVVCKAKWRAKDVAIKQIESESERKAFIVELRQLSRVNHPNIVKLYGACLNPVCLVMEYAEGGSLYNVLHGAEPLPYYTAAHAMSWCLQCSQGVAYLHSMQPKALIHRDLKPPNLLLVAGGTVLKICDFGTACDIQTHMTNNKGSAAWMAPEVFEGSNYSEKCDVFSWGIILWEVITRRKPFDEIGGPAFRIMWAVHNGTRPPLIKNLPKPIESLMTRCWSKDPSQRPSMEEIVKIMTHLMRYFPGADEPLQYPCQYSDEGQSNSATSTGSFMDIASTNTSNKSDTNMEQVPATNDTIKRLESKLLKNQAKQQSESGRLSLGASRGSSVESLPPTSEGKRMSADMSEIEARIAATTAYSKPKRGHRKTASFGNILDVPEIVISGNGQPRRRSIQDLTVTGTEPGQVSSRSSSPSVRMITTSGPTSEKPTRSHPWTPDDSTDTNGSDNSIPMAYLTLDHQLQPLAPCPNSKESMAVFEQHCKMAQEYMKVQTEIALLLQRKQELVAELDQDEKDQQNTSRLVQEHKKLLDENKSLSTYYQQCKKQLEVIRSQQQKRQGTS
# AKT2, sequence (P31751 whole entry): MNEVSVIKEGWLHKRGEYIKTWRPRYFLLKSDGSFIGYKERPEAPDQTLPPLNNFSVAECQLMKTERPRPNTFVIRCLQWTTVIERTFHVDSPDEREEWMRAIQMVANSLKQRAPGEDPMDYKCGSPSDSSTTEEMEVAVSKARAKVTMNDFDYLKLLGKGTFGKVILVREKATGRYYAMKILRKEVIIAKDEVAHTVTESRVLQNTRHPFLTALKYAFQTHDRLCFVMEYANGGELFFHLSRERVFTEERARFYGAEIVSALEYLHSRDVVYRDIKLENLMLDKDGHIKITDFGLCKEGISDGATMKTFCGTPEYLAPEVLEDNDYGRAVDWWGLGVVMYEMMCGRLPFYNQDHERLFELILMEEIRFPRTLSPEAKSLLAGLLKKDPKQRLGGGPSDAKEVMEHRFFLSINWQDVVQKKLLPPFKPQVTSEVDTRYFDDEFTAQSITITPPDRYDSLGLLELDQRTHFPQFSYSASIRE
# FLT4, sequence (P35916 whole entry): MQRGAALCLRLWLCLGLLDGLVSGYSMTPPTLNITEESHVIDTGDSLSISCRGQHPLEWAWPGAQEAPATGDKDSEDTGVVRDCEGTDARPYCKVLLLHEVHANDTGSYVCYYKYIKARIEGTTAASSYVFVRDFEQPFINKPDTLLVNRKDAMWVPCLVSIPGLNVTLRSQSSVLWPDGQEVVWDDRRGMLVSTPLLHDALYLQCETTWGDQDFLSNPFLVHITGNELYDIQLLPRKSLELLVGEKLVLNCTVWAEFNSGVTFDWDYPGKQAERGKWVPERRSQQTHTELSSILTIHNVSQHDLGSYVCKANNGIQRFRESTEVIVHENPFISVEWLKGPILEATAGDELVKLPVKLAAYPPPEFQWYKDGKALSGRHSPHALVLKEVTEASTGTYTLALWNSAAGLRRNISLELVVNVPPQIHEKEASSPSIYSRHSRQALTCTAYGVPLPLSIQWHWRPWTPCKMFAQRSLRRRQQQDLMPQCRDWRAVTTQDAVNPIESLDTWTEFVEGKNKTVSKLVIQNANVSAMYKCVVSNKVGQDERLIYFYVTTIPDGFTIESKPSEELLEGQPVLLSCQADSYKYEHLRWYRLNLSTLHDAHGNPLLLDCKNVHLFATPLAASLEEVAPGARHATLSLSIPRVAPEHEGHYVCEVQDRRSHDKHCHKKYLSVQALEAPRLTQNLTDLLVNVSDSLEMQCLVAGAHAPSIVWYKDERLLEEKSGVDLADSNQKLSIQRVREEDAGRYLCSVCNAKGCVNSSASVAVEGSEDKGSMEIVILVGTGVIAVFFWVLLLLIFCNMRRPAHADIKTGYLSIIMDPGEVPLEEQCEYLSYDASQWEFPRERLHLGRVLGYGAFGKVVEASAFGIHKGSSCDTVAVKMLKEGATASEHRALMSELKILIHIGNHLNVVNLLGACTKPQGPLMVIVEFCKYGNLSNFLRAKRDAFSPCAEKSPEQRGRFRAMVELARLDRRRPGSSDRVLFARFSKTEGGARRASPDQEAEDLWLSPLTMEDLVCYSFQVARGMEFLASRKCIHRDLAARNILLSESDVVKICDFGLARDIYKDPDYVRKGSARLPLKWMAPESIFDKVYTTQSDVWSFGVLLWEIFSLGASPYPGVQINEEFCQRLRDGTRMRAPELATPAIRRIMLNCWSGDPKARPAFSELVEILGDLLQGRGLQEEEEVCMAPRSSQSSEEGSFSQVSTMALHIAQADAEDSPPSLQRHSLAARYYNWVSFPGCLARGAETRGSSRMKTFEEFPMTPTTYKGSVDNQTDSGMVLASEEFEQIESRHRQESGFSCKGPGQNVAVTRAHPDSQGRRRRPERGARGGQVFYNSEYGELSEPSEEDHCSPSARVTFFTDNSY
# LCK, sequence (P06239 whole entry): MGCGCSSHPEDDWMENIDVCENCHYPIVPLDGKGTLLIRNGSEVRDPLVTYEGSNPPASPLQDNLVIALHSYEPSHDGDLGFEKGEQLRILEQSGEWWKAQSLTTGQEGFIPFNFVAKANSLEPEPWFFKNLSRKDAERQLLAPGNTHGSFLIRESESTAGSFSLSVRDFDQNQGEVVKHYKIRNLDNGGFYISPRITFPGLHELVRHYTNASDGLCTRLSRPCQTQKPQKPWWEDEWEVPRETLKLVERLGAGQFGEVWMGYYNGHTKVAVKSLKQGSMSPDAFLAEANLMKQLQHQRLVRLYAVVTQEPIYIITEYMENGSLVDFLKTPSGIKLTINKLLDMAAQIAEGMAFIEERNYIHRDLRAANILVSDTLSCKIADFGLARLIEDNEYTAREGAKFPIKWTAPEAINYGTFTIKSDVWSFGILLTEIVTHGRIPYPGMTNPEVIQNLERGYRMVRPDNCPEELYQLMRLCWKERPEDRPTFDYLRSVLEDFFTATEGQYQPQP
# CAMK4, sequence (Q16566 whole entry): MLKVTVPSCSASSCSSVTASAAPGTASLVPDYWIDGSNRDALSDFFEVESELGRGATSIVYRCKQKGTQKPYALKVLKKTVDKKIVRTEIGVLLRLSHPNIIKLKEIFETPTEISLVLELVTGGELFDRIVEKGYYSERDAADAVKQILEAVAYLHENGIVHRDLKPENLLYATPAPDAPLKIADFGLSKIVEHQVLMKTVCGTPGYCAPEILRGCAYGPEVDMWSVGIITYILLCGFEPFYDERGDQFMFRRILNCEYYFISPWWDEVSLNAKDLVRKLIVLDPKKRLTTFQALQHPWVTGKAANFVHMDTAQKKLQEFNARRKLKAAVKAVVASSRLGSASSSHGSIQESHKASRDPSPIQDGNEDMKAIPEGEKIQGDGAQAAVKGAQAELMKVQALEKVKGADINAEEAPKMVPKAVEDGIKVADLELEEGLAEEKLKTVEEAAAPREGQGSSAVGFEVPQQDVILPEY
# T9 sequence (Q9Y6E0 whole entry): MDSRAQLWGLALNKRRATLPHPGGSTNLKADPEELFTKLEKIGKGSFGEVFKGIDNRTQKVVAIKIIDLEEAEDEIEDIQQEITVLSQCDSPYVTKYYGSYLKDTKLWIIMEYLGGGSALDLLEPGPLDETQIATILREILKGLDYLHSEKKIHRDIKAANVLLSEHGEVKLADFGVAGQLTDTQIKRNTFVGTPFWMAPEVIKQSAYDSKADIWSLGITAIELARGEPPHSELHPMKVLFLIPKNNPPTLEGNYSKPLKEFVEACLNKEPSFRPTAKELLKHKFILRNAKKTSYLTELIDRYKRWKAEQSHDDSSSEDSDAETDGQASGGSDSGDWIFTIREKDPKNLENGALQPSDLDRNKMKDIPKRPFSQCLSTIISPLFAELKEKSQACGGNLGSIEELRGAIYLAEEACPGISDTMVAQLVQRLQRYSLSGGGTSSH
structure (smiles),measurement,setting,value
"O=C(/C=C/c1cnccc1-c1ccc(F)cc1)Nc1ccc(CCc2nnco2)cc1 [T-418, (2E)-3-(4-(4-fluorophenyl)pyridin-3-yl)-N-(4-(2-(1,3,4-oxadiazol-2-yl)ethyl)phenyl)acrylamide]",remaining binding at 0.3 µM,[1]; sheet T-418,83%
same,remaining binding at 0.3 µM,[2]; sheet T-418,98%
same,remaining binding at 0.3 µM,[3]; sheet T-418,90%
same,remaining binding at 0.3 µM,[4]; sheet T-418,100%
same,remaining binding at 0.3 µM,[5]; sheet T-418,100%
same,remaining binding at 0.3 µM,[6]; sheet T-418,97%
same,remaining binding at 0.3 µM,[7]; sheet T-418,78%
same,remaining binding at 0.3 µM,[8]; sheet T-418,92%
same,remaining binding at 0.3 µM,[9]; sheet T-418,100%
same,remaining binding at 0.3 µM,[10]; sheet T-418,84%
same,remaining binding at 0.3 µM,[11]; sheet T-418,100%
same,remaining binding at 0.3 µM,[12]; sheet T-418,100%
same,remaining binding at 0.3 µM,[13]; sheet T-418,86%
same,remaining binding at 0.3 µM,[14]; sheet T-418,98%
same,remaining binding at 0.3 µM,[15]; sheet T-418,71%
same,remaining binding at 0.3 µM,[16]; sheet T-418,100%
same,remaining binding at 0.3 µM,[17]; sheet T-418,64%
same,remaining binding at 0.3 µM,[18]; sheet T-418,100%
same,remaining binding at 0.3 µM,[19]; sheet T-418,62%
same,remaining binding at 0.3 µM,[20]; sheet T-418,100%
same,remaining binding at 0.3 µM,[21]; sheet T-418,100%
same,remaining binding at 0.3 µM,[22]; sheet T-418,100%
"Cc1ncccc1Oc1sc(C(N)=O)c2c1-c1c(cnn1C)CC2 [T-474, 1-methyl-8-((2-methylpyridin-3-yl)oxy)-4,5-dihydro-1H-thieno[3,4-g]indazole-6-carboxamide]",remaining binding at 0.3 µM,[1],83%
same,remaining binding at 0.3 µM,[2],100%
same,remaining binding at 0.3 µM,[3],100%
same,remaining binding at 0.3 µM,[4],100%
same,remaining binding at 0.3 µM,[5],100%
same,remaining binding at 0.3 µM,[6],100%
same,remaining binding at 0.3 µM,[7],100%
same,remaining binding at 0.3 µM,[8],100%
same,remaining binding at 0.3 µM,[9],90%
same,remaining binding at 0.3 µM,[10],83%
same,remaining binding at 0.3 µM,[11],100%
same,remaining binding at 0.3 µM,[12],100%
same,remaining binding at 0.3 µM,[13],87%
same,remaining binding at 0.3 µM,[14],100%
same,remaining binding at 0.3 µM,[15],97%
same,remaining binding at 0.3 µM,[16],100%
same,remaining binding at 0.3 µM,[17],70%
same,remaining binding at 0.3 µM,[18],100%
same,remaining binding at 0.3 µM,[19],61%
same,remaining binding at 0.3 µM,[20],100%
same,remaining binding at 0.3 µM,[21],100%
same,remaining binding at 0.3 µM,[22],96%
